The values below come from US20150335761A1, “COMPOSITIONS AND METHODS FOR CONTRACEPTION” (priority 2012, published 2015).

Each structure is given as a SMILES string.

The target in one data set is Cathepsin B (CB) (Homo sapiens, UniProt P07858). The data set is described as follows: in vitro release study of PADM in CB solution. The following applies: 37° C., read-out: half-life of ADM release. In kind it is biochemical. From the text: (§1) Activated CB cleaves the Phe-Lys dipeptide at the Lys-PABC bond. Then, the exposed PABC spacer spontaneously decarboxylates upon deacylation and free ADM molecules are released.

Data set [1] in a line: in vitro release study of PADM in human plasma. The format is in vitro ADME. The following applies: over 6-7 h in human plasma.
Text: as §1

Consider `COc1cccc2c1C(=O)c1c(O)c3c(c(O)c1C2=O)C[C@@](O)(C(=O)CO)C[C@@H]3O[C@H]1C[C@H](NC(=O)OCc2ccc(NC(=O)[C@H](CCCCN)NC(=O)[C@H](Cc3ccccc3)NC(C)=O)cc2)[C@H](O)[C@H](C)O1` [PADM, Ac-Phe-Lys-PABC-ADM], for which the half-life (commonly how long it takes for the measured level to halve) at Cathepsin B (CB) came out at 16 min. In addition, in data set [1], the “changes (ADM release) in human plasma” value is on record as “no changes were observed”.
